How the values were obtained:
caspase 8 = experiment: Caspase 8 activity in gastrocnemius muscle; assay type: in vivo, NMRI mice; conditions: 40 mg/kg; still significantly higher than in non-tumour-bearing animals
Description: (§1) Administration of alpha-trinositol. Mice (n=6) bearing the MAC16 tumour were treated with AT (40 mg/kg) s.c., 3 times per day, for 5 days, while a control group received PBS. Protein synthesis and degradation were determined by the incorporation and release of L-[2,6-^3H]phenylalanine, as described in Smith et al., Cancer Res., 2005; 65:277-83. On the fourth day of treatment half of the group administered 0.4 mmol/L L-[2,6-^3H]phenylalanine in PBS (100 μl) by i.p. administration.
Determination of Caspase activity. The activity of caspase 3 was determined by the release of 7-amino-4-methylcoumarin (AMC) from the specific substrate AcDEVD-AMC in the presence or absence of the caspase 3 inhibitor AcDEVD-CHO. […] The supernatant (50 μg protein) was incubated with the caspase 3 substrate for 1 h and the increase in fluorescence due to AMC was determined at an excilation wavelength of 370 nm and an emission wavelength of 430 nm. […] The increase in fluorescence due to the release of 7-amino-4-trifluoro-methylcoumarin (AFC) was measured with an excitation wavelength of 400 nm and an emission of 505 nm.

MAC16 tumour = experiment: Tumour volume in MAC16 tumour-bearing mice treated with alpha-trinositol (Example 1); assay type: in vivo, NMRI mice; conditions: 10 mg/kg s.c. three times per day
Text: (§2) Animals. Pure strain male NMRI mice (average body weight 25 g) were transplanted with fragments of the MAC16 tumour subcutaneously into the flank by means of a trochar, selected from donor animals with established weight loss (Bibby M C et al., Characterization of transplantable adenocarcinoma in the mouse colon producing cachexia in the recipient animals. J Natl Cancer Inst 78 (1987) 539-546). Transplanted animals were given a rat and mouse breeding diet (Special Diet Services, Witham, UK) and water at lib. Weight loss was evident 10 to 12 days after tumour implantation. Just prior to the development of weight loss 24 animals were randomized into four groups (I-IV) of six animals each.
(§3) Administration of alpha-trinositol. A first experiment was started when the animals had lost about 5% of body weight. Aliquots (2.5 μl, Group I; 5 μl, Group II; 10 μl, Group III) of alpha-trinositol stock solution corresponding to doses of 10 mg/kg, 20 mg/kg, and 40 mg/kg for a 25 g animal were administered subcutaneously three times per day at 8.00, 12.00 and 16.00 hrs. The fourth group (Group IV; control) was given an intravenous injection of 10 μl of water. Body weight (FIG. 1), tumour volume (FIG. 2), and water and food intake were determined daily after the last injection.

[1] = system: mice bearing the MAC16 tumour; experiment: Body weight change in cachectic mice bearing the MAC16 tumour treated with alpha-trinositol (Example 1); assay type: in vivo, NMRI mice
Description: Materials. Alpha-trinositol (1-D-Myo-inositol 1,2,6-triphosphate) was prepared according to U.S. Pat. No. 4,777,134. In a glass ampoule a stock solution was prepared by dissolving 1 g of alpha-trinositol in saline to a total volume of 10 ml. The stock solution was stored in a refrigerator for use within 24 hrs.
as §2, §3

[2] = system: Angiotensin II induced chymotrypsin like activity in C2C12 myotubes; experiment: Angiotensin II induced chymotrypsin-like activity in C2C12 myotubes; assay type: cell-based, murine; conditions: AT 100 μM
Text: Protein degradation induced by PIF is mediated through up-regulation of the ubiquitin-proteasome pathway (Tisdale et al., 2004, Br. J. Cancer). […] A hexanoyl ester of AT (lipid soluble AT) has been produced as a slow release form, after hydrolysis by esterase.

[3] = system: 20S proteasome α-subunits; experiment: Western blot of gastrocnemius muscle: 20S proteasome α-subunits; assay type: in vivo, NMRI mice; conditions: 40 mg/kg s.c., 3 times per day
Description: as §1
Western blot analysis Gastrocnemius muscle (10 mg) was homogenised in Phosphosafe™ Extraction Reagent (500 μl) and centrifuged at 15000 g for 15 min. Samples of the cytosolic proteins (5 μg) were loaded on either a 10% (mTOR, myosin, eIF4E and eIF4G) 12% (PKR, eIF2α and actin) or 15% (4E-BP1) sodium dodecylsulphate-polyacrylamide gel (SDS-PAGE) and electrophoresed at 180 V for approximately 1 h. The extent of phosphorylation of 4E-BP1, and the association of 4E-BP1 and eIF4G with eIF4E was determined by Western blotting when eIF4E was extracted from the muscle samples by m^7GTP-Sepharose 4B-affinity binding, as previously described Eley ey al., Biochem J., 2007; 407:113-20, by loading 20 μg of protein. […] Blots were scanned by a densitometer to quantify differences.

cachectic MAC16 mice = experiment: Body composition of cachectic MAC16 mice after alpha-trinositol treatment (Example 2); assay type: in vivo, NMRI mice; conditions: for Body composition: Fat / Body composition: Lean mass / Body composition: Water: mean ± SD
Text: as §2, §3
At the end of the treatment described in Example 1 the mice were sacrificed, and their body composition was analyzed. […] The reduction of lean body mass is normally observed in cachectic patients and is a significant cause of morbidity. No significant change in water content was observed.

[4] = alpha-Trinositol 10 (mg/ml as printed)
[5] = alpha-Trinositol 20 (mg/ml as printed)
[6] = alpha-Trinositol 40 (mg/ml as printed)

O=P(O)(O)O[C@@H]1[C@H](OP(=O)(O)O)[C@H](O)[C@@H](O)[C@H](O)[C@H]1OP(=O)(O)O [alpha-trinositol, 1-D-Myo-inositol 1,2,6-triphosphate]
activity of caspase-8 in gastrocnemius muscle (caspase 8): significantly reduced
tumour inhibition (MAC16 tumour): did not produce any statistically significant effect
anti-cachexia effect (body weight) ([1]; 10 mg/kg s.c. three times per day): clear anti-cachexia effect
relative weight loss versus control group ([1]; day 0 to day 5, AT group): half of the control group
body weight lost ([1]; day 0 to day 5, AT group, s.c. three times per day (FIG. 3: 3×40 mg/kg), control lost ~4.7 g): ~2.3 g
body weight lost ([1]; day 1 (first day of treatment) to day 5, AT group, control lost 3.3 g): 1.15 g
weight loss as fraction of the control group ([1]; day 1 to day 5, AT group): ⅓
effect on Ang II-induced chymotrypsin-like enzyme activity [2]: completely attenuated
expression of the 20S proteasome α-subunits in gastrocnemius muscle [3]: down-regulates
absolute fat change from controls (cachectic MAC16 mice; [4]): −19 % by weight
absolute lean mass change from controls (cachectic MAC16 mice; [4]): +11 % by weight
Body composition: Fat (cachectic MAC16 mice; alpha-Trinositol 10 (mg/ml as printed), control 6.1 ± 2.1): 4.9 ± 2.3 % by weight
Body composition: Lean mass (cachectic MAC16 mice; alpha-Trinositol 10 (mg/ml as printed), control 26.1 ± 1.6): 27.1 ± 3.0 % by weight
Body composition: Water (cachectic MAC16 mice; alpha-Trinositol 10 (mg/ml as printed), control 67.8 ± 1.2): 68.0 ± 2.0 % by weight
absolute fat change from controls (cachectic MAC16 mice; [5]): −46 % by weight
absolute lean mass change from controls (cachectic MAC16 mice; [5]): +15 % by weight
Body composition: Fat (cachectic MAC16 mice; [5]): 3.3 ± 0.5 % by weight
Body composition: Lean mass (cachectic MAC16 mice; [5]): 28.6 ± 1.7 % by weight
Body composition: Water (cachectic MAC16 mice; [5]): 68.1 ± 1.7 % by weight
absolute fat change from controls (cachectic MAC16 mice; [6]): −39 % by weight
absolute lean mass change from controls (cachectic MAC16 mice; [6]): +25 % by weight
Body composition: Fat (cachectic MAC16 mice; [6]): 3.7 ± 1.9 % by weight
Body composition: Lean mass (cachectic MAC16 mice; [6]): 30.7 ± 2.5 % by weight
Body composition: Water (cachectic MAC16 mice; [6]): 65.6 ± 1.7 % by weight
